This is an account of results in paper PMC11397260, “Towards New Delivery Agents for Boron Neutron Capture Therapy: Synthesis and In Vitro Evaluation of a Set of Fluorinated Carbohydrate Derivatives” (Molecules, 2024).

Series [1] has as its target T1, GLUT1 (Homo sapiens, UniProt P11166).
T1 construct: host or cells: CAL 27
T1 sequence (P11166 1-492): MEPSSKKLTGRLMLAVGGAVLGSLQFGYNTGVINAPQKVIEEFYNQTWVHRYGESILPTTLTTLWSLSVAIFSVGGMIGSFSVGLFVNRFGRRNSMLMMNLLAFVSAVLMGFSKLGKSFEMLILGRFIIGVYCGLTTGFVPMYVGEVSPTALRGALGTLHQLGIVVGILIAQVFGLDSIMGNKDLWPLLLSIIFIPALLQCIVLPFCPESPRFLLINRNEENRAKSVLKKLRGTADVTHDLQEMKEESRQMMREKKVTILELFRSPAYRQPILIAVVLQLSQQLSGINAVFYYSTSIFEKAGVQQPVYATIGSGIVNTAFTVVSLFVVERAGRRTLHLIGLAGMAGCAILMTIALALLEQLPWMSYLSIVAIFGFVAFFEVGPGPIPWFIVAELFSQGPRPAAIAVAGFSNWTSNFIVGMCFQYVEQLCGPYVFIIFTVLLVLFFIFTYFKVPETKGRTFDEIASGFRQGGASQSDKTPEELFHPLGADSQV
Nature of the series: cis-inhibition assay of [14C]-D-glucose uptake (GLUT1 affinity) in CAL 27 cells. Format: cell-based. To be noted: incubation time 5 min. From the text: GLUT affinity: In a strategy targeting the GLUTs, it is important to study whether the monosaccharide delivery agents will be able to compete for the transporters with the high D-glucose levels found in blood. For these purposes, we utilized our previously developed cis-inhibition assay in the CAL 27 cell line. In addition to having accurate protocols for assessment of GLUT-affinity, we have previously studied the GLUT1 expression and verified its function in the CAL 27 cell line. Thus, a strong foundation was available for the current study and we employed an identical protocol herein in the assessment of GLUT affinity, i.e., in assessing to which extent the delivery agents will be able to compete for the GLUTs against the natural substrate D-glucose.
(§1) The CAL 27 (ATCC CRL-2095) cells used in all assays were acquired from ATCC (Manassas, VA, USA) and cultured in Dulbecco’s Modified Eagle Medium (DMEM) supplemented with L-glutamine (2.0 mM), heat-inactivated fetal bovine serum (10%), and penicillin (50 U/mL)-streptomycin (50 μg/mL) at 37 °C with 5% CO2 and 95% relative humidity.
The GLUT1 affinity assay was conducted following our previously established protocol. Stock solutions of the glycoconjugates were prepared in DMSO. From the stock solutions, the samples employed in the study were prepared by diluting the stock solutions in glucose-free HBSS-buffer to reach concentrations of 0.1–1800 μM. The cells were incubated at RT for 5 min with glycoconjugates 1–4, BSH or BPA over the concentration range given above. The glucose-free HBSS buffer as such was used as a blank control. In more detail, the solutions included 1.8 μM ([…]) of [^14C]-D-glucose in 250 μL of glucose-free HBSS (Hanks’ balanced salt solution). Ice-cold buffer was used for quenching. Cell lysis was performed using 0.1 M NaOH (250 μL) and then mixed with an emulsifier safe cocktail (1.0 mL) (PerkinElmer, Waltham, MA, USA). The radioactivity was measured with a liquid scintillation counter (MicroBeta2 counter, PerkinElmer, Waltham, MA, USA), and the IC50 values were calculated through nonlinear regression analysis.

Series [2] relates to CAL 27 cells. Description: Boron delivery capacity (boron uptake) by ICP-MS. Type of series: cell-based, human. To be noted: 10–400 μM, 5 min and 120 min, compared with BPA and BSH and within the series. As to the method:
Boron delivery capacity: A central property of boron delivery agents is their boron delivery capacity. […] Herein, we studied the boron delivery capacity at two time points (5 min, and 120 min) over the concentration range of 10–400 μM (see summary in Figure 4). Our previously employed protocol was utilized in order to be able to compare the results to those obtained earlier. In short, after quenching of the incubation, washing, lysis, and digestion with nitric acid, the boron content could be determined by ICP-MS.
as §1
The boron uptake studies were performed according to our earlier reported protocol. The samples used in the boron uptake studies were prepared as described above for the affinity studies. The cells were preincubated. Glycoconjugates 1–4 at various concentrations (10–400 μM in 250 μL of HBSS) were added, and incubation continued for […] 120 min at RT. […] Milli-Q water (USF Elga Purelab Ultra, Veolia Water Technologies, High Wycombe, UK) was added to bring the sample volume to 10 mL, and the boron content was measured in triplicates using ICP-MS. […]

Series [3] can be described thus: Plasma stability, mouse plasma. Type of series: in vitro ADME. Conditions: 50 μM. How it is done:
These studies provide important insights into the stability and behavior of the delivery agent in a biological setting, which is a key factor at later stages of the development pipeline. The serum stability studies were performed in both human and mouse plasma at a set concentration of 50 μM over a time period of 24 h. Propantheline (5 μM) was utilized as a control substrate for validating the assay. […] In human plasma, the stability profile was distinct. […] While the boron delivery agent 4 does decompose in human plasma over time, the rate at which this occurs is acceptable when taking into account that the recommended guidelines for FDG imaging, thus tumor delivery, is between 55–75 min post administration. […]
10 mM working solutions of the test compound was prepared in DMSO and a 1 mM working solution of the control compound propantheline was prepared in acetonitrile. […] Peak area ratios were determined from extracted ion chromatograms. Percent compounds remaining at each time point were calculated by the following equation:Remaining Percentage t h (%) = Peak Area Ratio t h/Peak Area Ratio 0 h × 100 where Peak Area Ratio t h is the peak area ratio of control and test compound at t h; Peak Area Ratio 0 h is the peak area ratio of control and test compound at zero time point.

Series [4] is described as follows: Plasma stability, human plasma. Conditions: 50 μM. Format: in vitro ADME. How it is done:
These studies provide important insights into the stability and behavior of the delivery agent in a biological setting, which is a key factor at later stages of the development pipeline. The serum stability studies were performed in both human and mouse plasma at a set concentration of 50 μM over a time period of 24 h. Propantheline (5 μM) was utilized as a control substrate for validating the assay. […] In human plasma, the stability profile was distinct. […] While the boron delivery agent 4 does decompose in human plasma over time, the rate at which this occurs is acceptable when taking into account that the recommended guidelines for FDG imaging, thus tumor delivery, is between 55–75 min post administration. Nevertheless, the ortho-carboranylmethyl-substituent is likely to affect the pharmacokinetic properties of the delivery agents and thus comprehensive biodistribution studies will be needed in the future to assess these factors in more detail.
10 mM working solutions of the test compound was prepared in DMSO and a 1 mM working solution of the control compound propantheline was prepared in acetonitrile. 4 µL of working solutions was spiked to 796 µL of pre-incubated plasma to reach a final concentration of 50 µM or 5 µM. The final concentration of solvent was 0.5%. 50 µL aliquots of the spiked plasma were added into new tubes for 1, 4, 8 and 24 h and incubated at 37 °C water bath with shaking at 60 rpm. The assay was performed in duplicate. The reaction was stopped by adding 300 µL of RT quench solution (acetonitrile containing internal standards (IS, 100 nM Alprazolam, 500 nM Labetalol, and 2 µM Ketoprofen)) to the spiked plasma samples at the appointed time points. […] Peak area ratios were determined from extracted ion chromatograms. Percent compounds remaining at each time point were calculated by the following equation:Remaining Percentage t h (%) = Peak Area Ratio t h/Peak Area Ratio 0 h × 100 where Peak Area Ratio t h is the peak area ratio of control and test compound at t h; Peak Area Ratio 0 h is the peak area ratio of control and test compound at zero time point.

A short description of series [5]: Plasma protein binding, equilibrium dialysis, human plasma. Format: in vitro ADME. Conditions: 1 μM, results similar in human and mouse. How it is done:
(§2) Through the plasma protein binding assay, we sought to provide a baseline for future assessment of the ADME-properties of FDM derivative 4. In more detail, this assay would let us evaluate to which extent the FDM derivative 4 would remain in an unbound state in the presence of plasma proteins. These studies were performed through the standard equilibrium dialysis protocol at the time points of 0 and 6 h employing a concentration of 1 μM. While the studies were performed in both human and mouse plasma, the results were similar in both cases. Being a relatively lipophilic species, it was unsurprising that the FDM derivative 4 bound in significant amounts to the plasma proteins (~97% bound vs. 3% unbound).
The working solutions of test compounds were prepared in DMSO at the concentrations of 10 mM and the working solution of control compound ketoconazole was prepared in DMSO at the concentration of 200 μM. 3 μL of the working solutions were removed to mix with 597 μL of plasma to achieve a final concentration of 1 μM or 50 μM (0.5% DMSO). The plasma samples were vortexed thoroughly. […]

Series [6] is described as follows: Plasma protein binding, equilibrium dialysis, mouse plasma. Type of series: in vitro ADME. To be noted: 1 μM, results similar in human and mouse. How it is done: as §2
The working solutions of test compounds were prepared in DMSO at the concentrations of 10 mM and the working solution of control compound ketoconazole was prepared in DMSO at the concentration of 200 μM. 3 μL of the working solutions were removed to mix with 597 μL of plasma to achieve a final concentration of 1 μM or 50 μM (0.5% DMSO). The plasma samples were vortexed thoroughly. A total of 50 µL of the spiked plasma sample was transferred to 50 μL of blank buffer, and then either incubated for 6 h (37 °C with 5% CO2) or immediately quenched by the addition of 300 μL of RT quench solution (acetonitrile containing internal standards (IS, 200 nM labetalol, 100 nM tolbutamide and 100 nM ketoprofen) to precipitate protein and the mixture was vortex for 5 min.
The dialysis membranes were soaked in ultrapure water for 60 min to separate strips, then in 20% ethanol for 20 min, and finally in dialysis buffer for 20 min. The dialysis apparatus was assembled according to the manufacturer’s instructions. Each cell was filled with 120 μL of spiked plasma sample and dialyzed against equal volume of dialysis buffer (PBS). The assay was performed in duplicate. The dialysis plate was sealed and incubated in an incubator at 37 °C with 5% CO2 at 100 rpm for 6 h. […]

The compound `OC[C@H]1OC(O)[C@H](O)[C@@H](O)[C@@H]1O` (stereo partly shown) [D -Glc, reference compound] yielded an IC50 in series [1] above 1000 µM.
“2-deoxy-2-fluoro-4-O-carboranylmethyl-D-mannopyranose [Compound 4]”: the IC50 in series [1] is 59.5 µM. Moreover, the boron delivery capacity entry in series [2] was “best delivery agent out of the series synthesized”. For the same compound, the results for the conjugate remaining intact in series [3] (1 h) and in series [3] (24 h) were 84.7% and 60%, respectively. The “stability in human plasma” value in series [4] (1 h) is “remained stable”. For the same compound, the remained intact is 86.7% in series [4] (4 h) and 39.5% in series [4] (24 h). Besides, the “bound to plasma proteins” value in series [5] and in series [6] (equilibrium dialysis) was ~ 97% in each case. In addition, the unbound in series [5] and in series [6] (equilibrium dialysis) was 3% in each case. In addition, the “remained in the bound state” value in series [6] (6 h mark) was 80–87%.
In series [1], “2-deoxy-2-fluoro-4-O-carboranylmethyl-D-glucopyranose [Compound 2]” had an IC50 of 57.5 µM.
The same measure, in the same setting: the value for “2-deoxy-2-fluoro-6-O-carboranylmethyl-D-mannopyranose [Compound 3]” was 62.6 µM.
Same read-out and setting: the figure for “2-deoxy-2-fluoro-6-O-carboranylmethyl-D-glucopyranose [Compound 1]” is 78.3 µM.
